Measured values reported in the NIST ThermoML archive (doi:10.1016/j.jct.2008.01.018).
Numbers after ± are expanded uncertainties.

Assay: mn = molality of the nth substance listed, in mol/kg
Conditions: 101 kPa, Liquid; for molar conductivity: Alternating current cell with electrodes; for speed of sound: Sing-around technique in a fixed-path interferometer

Structure (SMILES): O=P([O-])(O)O.[Na+] [sodium dihydrogen phosphate] + O
- mass density (293.15 K, m1 = 0.5812): 1047.85 ± 0.22 kg/m3
- mass density (293.15 K, m1 = 0.6658): 1054.7 ± 0.23 kg/m3
- mass density (293.15 K, m1 = 0.7462): 1061.08 ± 0.24 kg/m3
- mass density (293.15 K, m1 = 0.9163): 1074.46 ± 0.26 kg/m3
- mass density (293.15 K, m1 = 1.093): 1088.3 ± 0.28 kg/m3
- mass density (293.15 K, m1 = 1.262): 1100.87 ± 0.3 kg/m3
- mass density (293.15 K, m1 = 1.451): 1114.43 ± 0.32 kg/m3
- mass density (293.15 K, m1 = 1.758): 1135.93 ± 0.35 kg/m3
- mass density (293.15 K, m1 = 2.041): 1155.22 ± 0.38 kg/m3
- mass density (293.15 K, m1 = 2.374): 1177.26 ± 0.42 kg/m3
- mass density (293.15 K, m1 = 2.747): 1200.86 ± 0.45 kg/m3
- mass density (293.15 K, m1 = 3.115): 1222.16 ± 0.49 kg/m3
- mass density (293.15 K, m1 = 3.512): 1245.55 ± 0.53 kg/m3
- molar conductivity (298.15 K, m1 = 0.0207): 0.00762 ± 0.00015 S·m2/mol
- molar conductivity (298.15 K, m1 = 0.0415): 0.00723 ± 0.00015 S·m2/mol
- molar conductivity (298.15 K, m1 = 0.0697): 0.00683 ± 0.00014 S·m2/mol
- molar conductivity (298.15 K, m1 = 0.1051): 0.00655 ± 0.00013 S·m2/mol
- molar conductivity (298.15 K, m1 = 0.1397): 0.00634 ± 0.00013 S·m2/mol
- molar conductivity (298.15 K, m1 = 0.1901): 0.0061 ± 0.00012 S·m2/mol
- molar conductivity (298.15 K, m1 = 0.2357): 0.0059 ± 0.00012 S·m2/mol
- molar conductivity (298.15 K, m1 = 0.2947): 0.00572 ± 0.00011 S·m2/mol
- molar conductivity (298.15 K, m1 = 0.3516): 0.00553 ± 0.00011 S·m2/mol
- molar conductivity (298.15 K, m1 = 0.433): 0.00533 ± 0.00011 S·m2/mol
- molar conductivity (298.15 K, m1 = 0.5113): 0.00517 ± 0.0001 S·m2/mol
- molar conductivity (298.15 K, m1 = 0.5842): 0.00496 ± 9.9e-05 S·m2/mol
- molar conductivity (298.15 K, m1 = 0.653): 0.00484 ± 9.7e-05 S·m2/mol
- molar conductivity (298.15 K, m1 = 0.6999): 0.00475 ± 9.5e-05 S·m2/mol
- molar conductivity (298.15 K, m1 = 0.7919): 0.00457 ± 9.1e-05 S·m2/mol
- molar conductivity (298.15 K, m1 = 0.9206): 0.00436 ± 8.7e-05 S·m2/mol
- molar conductivity (298.15 K, m1 = 1.175): 0.00398 ± 8e-05 S·m2/mol
- molar conductivity (298.15 K, m1 = 1.18): 0.00398 ± 8e-05 S·m2/mol
- molar conductivity (298.15 K, m1 = 1.447): 0.00367 ± 7.3e-05 S·m2/mol
- molar conductivity (298.15 K, m1 = 1.794): 0.00329 ± 6.6e-05 S·m2/mol
- molar conductivity (298.15 K, m1 = 2.079): 0.00303 ± 6.1e-05 S·m2/mol
- molar conductivity (298.15 K, m1 = 2.396): 0.00276 ± 5.5e-05 S·m2/mol
- molar conductivity (298.15 K, m1 = 2.398): 0.00278 ± 5.6e-05 S·m2/mol
- speed of sound (298.15 K, m1 = 0.0343): 1500.2 ± 0.74 m/s
- speed of sound (298.15 K, m1 = 0.0484): 1501.7 ± 0.74 m/s
- speed of sound (298.15 K, m1 = 0.1399): 1510.6 ± 0.75 m/s
- speed of sound (298.15 K, m1 = 0.167): 1513.2 ± 0.75 m/s
- speed of sound (298.15 K, m1 = 0.1967): 1516.2 ± 0.75 m/s
- speed of sound (298.15 K, m1 = 0.2231): 1518.7 ± 0.75 m/s
- speed of sound (298.15 K, m1 = 0.2506): 1521.3 ± 0.75 m/s
- speed of sound (298.15 K, m1 = 0.3229): 1528.2 ± 0.76 m/s
- speed of sound (298.15 K, m1 = 0.3586): 1531.5 ± 0.76 m/s
- speed of sound (298.15 K, m1 = 0.4346): 1538.3 ± 0.76 m/s
- speed of sound (298.15 K, m1 = 0.5108): 1545 ± 0.76 m/s
- speed of sound (298.15 K, m1 = 0.5812): 1551.3 ± 0.77 m/s
- speed of sound (298.15 K, m1 = 0.6658): 1558.7 ± 0.77 m/s
- speed of sound (298.15 K, m1 = 0.7462): 1565.5 ± 0.77 m/s
- speed of sound (298.15 K, m1 = 0.9163): 1579.9 ± 0.78 m/s
- speed of sound (298.15 K, m1 = 1.093): 1594.8 ± 0.79 m/s
- speed of sound (298.15 K, m1 = 1.262): 1608.4 ± 0.79 m/s
- speed of sound (298.15 K, m1 = 1.451): 1623.1 ± 0.8 m/s
- speed of sound (298.15 K, m1 = 1.758): 1646.4 ± 0.81 m/s
- speed of sound (298.15 K, m1 = 2.041): 1667.7 ± 0.82 m/s
- speed of sound (298.15 K, m1 = 2.374): 1692.3 ± 0.84 m/s
- speed of sound (298.15 K, m1 = 2.747): 1718.9 ± 0.85 m/s
- speed of sound (298.15 K, m1 = 3.115): 1743.2 ± 0.87 m/s
- speed of sound (298.15 K, m1 = 3.512): 1770.5 ± 0.89 m/s
- mass density (298.15 K, m1 = 0.0343): 1000.13 ± 0.16 kg/m3
- mass density (298.15 K, m1 = 0.0484): 1001.36 ± 0.15 kg/m3
- mass density (298.15 K, m1 = 0.1399): 1009.35 ± 0.17 kg/m3
- mass density (298.15 K, m1 = 0.167): 1011.69 ± 0.17 kg/m3
- mass density (298.15 K, m1 = 0.1967): 1014.27 ± 0.17 kg/m3
- mass density (298.15 K, m1 = 0.2231): 1016.57 ± 0.17 kg/m3
- mass density (298.15 K, m1 = 0.2506): 1018.89 ± 0.18 kg/m3
- mass density (298.15 K, m1 = 0.3229): 1025.07 ± 0.19 kg/m3
- mass density (298.15 K, m1 = 0.3586): 1028.07 ± 0.19 kg/m3
- mass density (298.15 K, m1 = 0.4346): 1034.3 ± 0.2 kg/m3
- mass density (298.15 K, m1 = 0.5108): 1040.52 ± 0.21 kg/m3
- mass density (298.15 K, m1 = 0.5812): 1046.29 ± 0.22 kg/m3
- mass density (298.15 K, m1 = 0.6658): 1053.09 ± 0.23 kg/m3
- mass density (298.15 K, m1 = 0.7462): 1059.42 ± 0.23 kg/m3
- mass density (298.15 K, m1 = 0.9163): 1072.73 ± 0.25 kg/m3
- mass density (298.15 K, m1 = 1.093): 1086.48 ± 0.28 kg/m3
- mass density (298.15 K, m1 = 1.262): 1098.98 ± 0.29 kg/m3
- mass density (298.15 K, m1 = 1.451): 1112.46 ± 0.31 kg/m3
- mass density (298.15 K, m1 = 1.758): 1133.86 ± 0.35 kg/m3
- mass density (298.15 K, m1 = 2.041): 1153.06 ± 0.38 kg/m3
- mass density (298.15 K, m1 = 2.374): 1175 ± 0.41 kg/m3
- mass density (298.15 K, m1 = 2.747): 1198.51 ± 0.45 kg/m3
- mass density (298.15 K, m1 = 3.115): 1219.74 ± 0.48 kg/m3
- mass density (298.15 K, m1 = 3.512): 1243.05 ± 0.52 kg/m3
- speed of sound (303.15 K, m1 = 0.0343): 1512.4 ± 0.75 m/s
- speed of sound (303.15 K, m1 = 0.0484): 1513.9 ± 0.75 m/s
- speed of sound (303.15 K, m1 = 0.1399): 1522.5 ± 0.75 m/s
- speed of sound (303.15 K, m1 = 0.167): 1525.1 ± 0.75 m/s
- speed of sound (303.15 K, m1 = 0.1967): 1527.9 ± 0.75 m/s
- speed of sound (303.15 K, m1 = 0.2231): 1530.4 ± 0.76 m/s
- speed of sound (303.15 K, m1 = 0.2506): 1532.9 ± 0.76 m/s
- speed of sound (303.15 K, m1 = 0.3229): 1539.5 ± 0.76 m/s
- speed of sound (303.15 K, m1 = 0.3586): 1542.6 ± 0.76 m/s
- speed of sound (303.15 K, m1 = 0.4346): 1549.3 ± 0.77 m/s
- speed of sound (303.15 K, m1 = 0.5108): 1555.8 ± 0.77 m/s
- speed of sound (303.15 K, m1 = 0.5812): 1561.8 ± 0.77 m/s
- speed of sound (303.15 K, m1 = 0.6658): 1568.9 ± 0.77 m/s
- speed of sound (303.15 K, m1 = 0.7462): 1575.5 ± 0.78 m/s
- speed of sound (303.15 K, m1 = 0.9163): 1589.4 ± 0.78 m/s
- speed of sound (303.15 K, m1 = 1.093): 1603.7 ± 0.79 m/s
- speed of sound (303.15 K, m1 = 1.262): 1616.8 ± 0.8 m/s
- speed of sound (303.15 K, m1 = 1.451): 1631 ± 0.8 m/s
- speed of sound (303.15 K, m1 = 1.758): 1653.4 ± 0.82 m/s
- speed of sound (303.15 K, m1 = 2.041): 1673.9 ± 0.83 m/s
- speed of sound (303.15 K, m1 = 2.374): 1697.5 ± 0.84 m/s
- speed of sound (303.15 K, m1 = 2.747): 1723.2 ± 0.85 m/s
- speed of sound (303.15 K, m1 = 3.115): 1746.5 ± 0.87 m/s
- speed of sound (303.15 K, m1 = 3.512): 1772.8 ± 0.89 m/s
- mass density (303.15 K, m1 = 0.0343): 998.703 ± 0.15 kg/m3
- mass density (303.15 K, m1 = 0.0484): 999.924 ± 0.15 kg/m3
- mass density (303.15 K, m1 = 0.1399): 1007.86 ± 0.16 kg/m3
- mass density (303.15 K, m1 = 0.167): 1010.18 ± 0.17 kg/m3
- mass density (303.15 K, m1 = 0.1967): 1012.74 ± 0.17 kg/m3
- mass density (303.15 K, m1 = 0.2231): 1015.02 ± 0.17 kg/m3
- mass density (303.15 K, m1 = 0.2506): 1017.33 ± 0.17 kg/m3
- mass density (303.15 K, m1 = 0.3229): 1023.47 ± 0.18 kg/m3
- mass density (303.15 K, m1 = 0.3586): 1026.45 ± 0.19 kg/m3
- mass density (303.15 K, m1 = 0.4346): 1032.64 ± 0.2 kg/m3
- mass density (303.15 K, m1 = 0.5108): 1038.82 ± 0.2 kg/m3
- mass density (303.15 K, m1 = 0.5812): 1044.55 ± 0.21 kg/m3
- mass density (303.15 K, m1 = 0.6658): 1051.31 ± 0.22 kg/m3
- mass density (303.15 K, m1 = 0.7462): 1057.61 ± 0.23 kg/m3
- mass density (303.15 K, m1 = 0.9163): 1070.83 ± 0.25 kg/m3
- mass density (303.15 K, m1 = 1.093): 1084.51 ± 0.27 kg/m3
- mass density (303.15 K, m1 = 1.262): 1096.94 ± 0.29 kg/m3
- mass density (303.15 K, m1 = 1.451): 1110.36 ± 0.31 kg/m3
- mass density (303.15 K, m1 = 1.758): 1131.66 ± 0.34 kg/m3
- mass density (303.15 K, m1 = 2.041): 1150.78 ± 0.37 kg/m3
- mass density (303.15 K, m1 = 2.374): 1172.65 ± 0.41 kg/m3
- mass density (303.15 K, m1 = 2.747): 1196.07 ± 0.45 kg/m3
- mass density (303.15 K, m1 = 3.115): 1217.23 ± 0.48 kg/m3
- mass density (303.15 K, m1 = 3.512): 1240.48 ± 0.52 kg/m3
